Experimental data: patent US20090181986A1, “SUBSTITUTED HETEROCYCLIC COMPOUNDS” (priority 2007, published 2009)

How the values were obtained:
[1] = tested on: L-type calcium channel; assay: L-type calcium channel activity well-plate assay (IMR-32 cells, Ca-4 dye, FlexStation); type: cell-based, human
Description: Cell Culture: IMR-32 (human neuroblastoma) cells were obtained from The American Type Culture Collection. The cells were maintained in MEM supplemented with 10% fetal bovine serum, 2 mM of L-glutamine, 100 IU/ml of penicillin, 50 μg/ml of streptomycin, 1% of sodium pyruvate, 1% of sodium bicarbonate and 1% of non-essential amino acid. […] Culture medium was changed every two days and cells were recultivated when they reached 70-80% confluent.
Assay: IMR-32 cells were seeded on a Microtest 96-well Assay Plate (BD FALCON™) at a density of 200,000 cells/well in 200 μl culture medium for overnight. The culture medium was removed, and replaced by 120 μl Ca-4 dye (MDS Analytical Technologies, Sunnyvale, Calif.) in HBSS (1× Hank's Balanced Salt solution plus 20 mM HEPES, pH 7.4) containing 2 mM probenecid. Cells were then incubated for 1 hour at 37° in incubator. Testing compounds were diluted from 5 μM-50 μM in HBSS, and 40 μl were added in cells before assay. […] The inhibition of L-type calcium channel activity by compounds was then calculated.

[2] = target: hERG potassium channel (Homo sapiens, UniProt Q12809); assay: hERG screening assay (PatchXpress patch clamp, CHO cells)
Chain of hERG potassium channel (Q12809 whole entry): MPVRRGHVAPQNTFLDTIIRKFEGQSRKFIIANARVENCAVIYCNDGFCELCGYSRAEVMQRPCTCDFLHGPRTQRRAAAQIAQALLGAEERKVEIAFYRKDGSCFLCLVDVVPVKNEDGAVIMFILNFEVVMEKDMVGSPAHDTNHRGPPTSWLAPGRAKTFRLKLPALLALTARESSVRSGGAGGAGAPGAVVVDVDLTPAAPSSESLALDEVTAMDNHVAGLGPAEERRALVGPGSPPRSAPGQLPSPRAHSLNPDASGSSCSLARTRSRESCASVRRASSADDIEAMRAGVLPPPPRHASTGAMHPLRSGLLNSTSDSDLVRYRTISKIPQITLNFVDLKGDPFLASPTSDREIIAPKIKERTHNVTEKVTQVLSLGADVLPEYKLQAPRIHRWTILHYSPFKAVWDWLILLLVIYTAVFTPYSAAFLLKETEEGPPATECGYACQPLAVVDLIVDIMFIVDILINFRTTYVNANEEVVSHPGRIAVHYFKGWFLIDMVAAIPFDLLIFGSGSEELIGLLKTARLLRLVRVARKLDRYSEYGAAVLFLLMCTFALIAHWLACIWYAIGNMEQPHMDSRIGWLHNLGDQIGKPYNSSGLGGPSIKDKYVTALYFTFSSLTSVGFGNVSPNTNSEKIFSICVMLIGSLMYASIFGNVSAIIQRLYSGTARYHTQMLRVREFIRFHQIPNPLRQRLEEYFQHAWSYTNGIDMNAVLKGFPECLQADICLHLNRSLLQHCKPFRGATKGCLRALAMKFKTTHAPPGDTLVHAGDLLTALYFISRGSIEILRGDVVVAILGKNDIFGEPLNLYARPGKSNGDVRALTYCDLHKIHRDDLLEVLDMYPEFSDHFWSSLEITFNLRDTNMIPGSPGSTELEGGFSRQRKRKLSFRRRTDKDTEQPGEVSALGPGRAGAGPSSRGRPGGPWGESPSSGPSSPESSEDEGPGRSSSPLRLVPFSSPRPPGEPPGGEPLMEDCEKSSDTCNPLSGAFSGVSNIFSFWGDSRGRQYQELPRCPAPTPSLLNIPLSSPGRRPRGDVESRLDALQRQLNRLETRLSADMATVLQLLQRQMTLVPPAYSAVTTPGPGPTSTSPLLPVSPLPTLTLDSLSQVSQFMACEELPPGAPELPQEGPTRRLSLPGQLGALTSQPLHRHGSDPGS

Row | Compound | CaL Plate Assay % blk (1 μM test cmpd) [1] [%] | hERG Patch Clamp hERG % blk (10 μM test cmpd) [2] [%] | CaL Plate Assay % blk (10 μM test cmpd) [1] [%] | hERG Patch Clamp hERG % blk (1 μM test cmpd) ([2]; 1 μM test cmpd) [%]
1 | CC1=C(C(=O)OC2CCc3ccccc32)C(c2cccc3ccccc23)n2nnnc2N1 (stereo not shown) [PT-062, 2,3-dihydro-1H-inden-1-yl 5-methyl-7-(naphthalen-1-yl)-4,7-dihydrotetrazolo[1,5-a]pyrimidine-6-carboxylate] | 51 | 14 | – | –
2 | CC1=C(C(=O)OCc2ccccc2)C(c2cccs2)n2nnnc2N1 (stereo not shown) [PT-040, benzyl 5-methyl-7-(thiophen-2-yl)-4,7-dihydrotetrazolo[1,5-a]pyrimidine-6-carboxylate] | 0 | 24.5 | 18 | 14.5
3 | CCOC(=O)C1=C(C)NC(C)=C(C(=O)OCC)C1c1ccc(CC)o1 [PT-121, diethyl 4-(5-ethylfuran-2-yl)-2,6-dimethyl-1,4-dihydropyridine-3,5-dicarboxylate] | 35 | – | 72 | –
4 | CC1=C(C(=O)OC(C)C)C(c2ccc3ccccc3c2)C2=C(CCCC2=O)N1 (stereo not shown) [PT-157, isopropyl 2-methyl-4-(naphthalen-2-yl)-5-oxo-1,4,5,6,7,8-hexahydroquinoline-3-carboxylate] | 3 | – | 43 | –
5 | CC1=C(C(=O)NCCCCc2ccccc2)C(c2ccsc2)C2=C(CCCC2=O)N1 (stereo not shown) [PT-164, 2-methyl-5-oxo-N-(4-phenylbutyl)-4-(thiophen-3-yl)-1,4,5,6,7,8-hexahydroquinoline-3-carboxamide] | 20 | – | 77 | –
6 | CCOC(=O)C1=C(C)NC2=C(C(=O)CCC2)C1c1ccc(C)c2ccccc12 (stereo not shown) [PT-135, ethyl 2-methyl-4-(4-methylnaphthalen-1-yl)-5-oxo-1,4,5,6,7,8-hexahydroquinoline-3-carboxylate] | 24 | – | 62 | –
7 | CC1=C(C(=O)OCC(F)(F)F)C(c2cccc3ccccc23)n2nnnc2N1 (stereo not shown) [PT-014, 2,2,2-trifluoroethyl 5-methyl-7-(naphthalen-1-yl)-4,7-dihydrotetrazolo[1,5-a]pyrimidine-6-carboxylate] | 0 | – | 40 | –
8 | N#CC1=C(N)OC2=C(C(=O)CC(c3ccccc3)C2)C1c1ccsc1 (stereo not shown) [PT-102, 2-amino-5-oxo-7-phenyl-4-(thiophen-3-yl)-5,6,7,8-tetrahydro-4H-chromene-3-carbonitrile] | 6 | – | 51 | –
9 | CCOC(=O)C1=C(C)NC(C)=C(C(=O)OCC)C1c1ccsc1 [PT-110, diethyl 2,6-dimethyl-4-(thiophen-3-yl)-1,4-dihydropyridine-3,5-dicarboxylate] | 86 | – | 88 | –
10 | CCCC1=C(C(=O)OCC)C(c2ccsc2)C2=C(CC(c3ccco3)CC2=O)N1 (stereo not shown) [PT-150, ethyl 7-(furan-2-yl)-5-oxo-2-propyl-4-(thiophen-3-yl)-1,4,5,6,7,8-hexahydroquinoline-3-carboxylate] | 4 | – | 71 | –
11 | CC1=C(C(=O)O[C@@H](C)c2ccccc2)C(c2cccc3ccccc23)n2nnnc2N1 (stereo partly drawn) [PT-048, (S)-1-phenylethyl 5-methyl-7-(naphthalen-1-yl)-4,7-dihydrotetrazolo[1,5-a]pyrimidine-6-carboxylate] | 0 | – | 74 | –
12 | CCOC(=O)C1=C(C)NC(C)=C(C(=O)OCC)C1c1csc2ccccc12 [PT-115, diethyl 4-(benzo[b]thiophen-3-yl)-2,6-dimethyl-1,4-dihydropyridine-3,5-dicarboxylate] | 52 | – | 65 | –
13 | CC1=C(C(=O)OCc2ccccc2)C(c2cc3ccccc3s2)n2nnnc2N1 (stereo not shown) [PT-043, benzyl 7-(benzo[b]thiophen-2-yl)-5-methyl-4,7-dihydrotetrazolo[1,5-a]pyrimidine-6-carboxylate] | 23 | – | 60 | –
